Assay results taken from article PMC12019362, “Conformational changes in the motor ATPase CpaF facilitate a rotary mechanism of Tad pilus assembly” (Nature Communications, 2025).

B1: Caulobacter crescentus CpaF (Tad pilus motor ATPase) (enzyme, Caulobacter crescentus NA1000, UniProt Q9L714 1-501, looked up)
chain: MFGKRDSSASGDPKAPPPAPAGGATIATRPQRVEPVAAPEPKAPAPKVSGPAPKPTVGLEQLRAAQGQPQTANIVREQSDYYHATKTTIFNALLNTIDLSQLAQLDLKQAGEEIRDIVAELVAIKNVSMSVAEQEHLVQDIINDVLGYGPLEPLLARDDIADIMVNGAHRVFIEVGGKVQLTNVRFRDNLQLMNICQRIVSQVGRRVDESSPICDARLPDGSRVNVIAPPLALDGPTLTIRKFKKDKLTMKNLVEFASISPEGARVLGVIGACRCNLVISGGTGSGKTTLLNTMTAFIDPTERVVTCEDAAELQLQQPHVVRLETRPPNLEGSGAVTMRDLVKNCLRMRPERIIVGEVRGPEAFDLLQAMNTGHDGSMGTLHANSPREAISRIESMITMGGYGLPSKTIKEMIVGSVDVIIQAARLRDGSRRITHITEVVGLEGDVIVTQDLFVYEITGEDEHGKVVGKHRSTGIARPRFWDRARYYGLERELAEALDAAE
notes: CpaF, Caulobacter crescentus NA1000, cloned from genomic DNA into pET28a; 501 residues (IDR 1-79, 3HB 80-146, NTD-CAD 147-501); residues 80-501 are modelled in the maps, the IDR is not resolved; Hexamer with C2 symmetry in all five cryo-EM structures; the construct was cloned from strain NA1000; also called WT CpaF; full length CpaF; source: E. coli Rosetta 2, purified (Ni-NTA, Superose 6 SEC)

What was measured:
CpaF = biological target: T1, CpaF (Caulobacter vibrioides, UniProt Q9L714, K287A); assay: enzyme-coupled ATPase assay (pyruvate kinase / lactate dehydrogenase, NADH at […] nm); assay type: biochemical; details: 1 mM ATP, 1 mM MgCl2, pH 8.0, 30 °C; Walker A mutant
T1 construct: full length (501 residues), N-terminal His6 tag (pET28a), tag removal not described, E. coli Rosetta 2; homohexamer; residues 80-501 modelled

CpaF^73-501 = biological target: T2, CpaF^73-501 (Caulobacter vibrioides, UniProt Q9L714); assay: as above; assay type: biochemical; details: 1 mM ATP, 1 mM MgCl2, pH 8.0, 30 °C
T2 construct: IDR truncation, residues 73-501, N-terminal His6 tag (pET28a), E. coli Rosetta 2

CpaF^80-501 = biological target: T3, CpaF^80-501 (Caulobacter vibrioides, UniProt Q9L714); assay: as above; assay type: biochemical; details: 1 mM ATP, 1 mM MgCl2, pH 8.0, 30 °C
T3 construct: IDR truncation, residues 80-501 (whole IDR removed), N-terminal His6 tag (pET28a), E. coli Rosetta 2

CpaF^66-501 = biological target: T4, CpaF^66-501 (Caulobacter vibrioides, UniProt Q9L714); assay: as above; assay type: biochemical; details: 1 mM ATP, 1 mM MgCl2, pH 8.0, 30 °C
T4 construct: IDR truncation, residues 66-501, N-terminal His6 tag (pET28a), E. coli Rosetta 2

[1] = biological target: the molecule itself; assay: cryo-EM structure; purified CpaF, 5 mg/mL, 50 mM HEPES pH 8.0, 200 mM NaCl, 1 mM TCEP, 0.05% CHAPS; three samples: no added nucleotide, 50 uM equimolar ATP/ADP/MgCl2, 1 mM ATP/MgCl2; C2-symmetric hexamers (closed, compact, expanded)

T1 sequence (Q9L714 entry or part of it K287A): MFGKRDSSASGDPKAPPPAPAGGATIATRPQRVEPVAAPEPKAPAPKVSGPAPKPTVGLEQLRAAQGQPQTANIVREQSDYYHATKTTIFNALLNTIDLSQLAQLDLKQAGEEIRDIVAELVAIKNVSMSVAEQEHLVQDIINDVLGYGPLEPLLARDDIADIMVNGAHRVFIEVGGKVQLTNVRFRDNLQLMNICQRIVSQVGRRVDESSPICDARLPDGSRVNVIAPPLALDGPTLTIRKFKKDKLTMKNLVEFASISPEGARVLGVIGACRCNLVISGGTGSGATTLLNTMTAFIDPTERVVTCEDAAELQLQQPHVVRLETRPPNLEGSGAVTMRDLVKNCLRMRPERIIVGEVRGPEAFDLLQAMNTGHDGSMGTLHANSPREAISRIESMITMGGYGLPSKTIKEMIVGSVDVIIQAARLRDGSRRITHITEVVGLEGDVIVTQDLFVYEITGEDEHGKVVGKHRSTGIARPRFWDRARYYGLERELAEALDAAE

Molecule	ATPase activity (CpaF)	ATPase activity (CpaF^73-501)	ATPase activity (CpaF^80-501)	ATPase activity (CpaF^66-501)	stoichiometry N [1]
Nc1ncnc2c1ncn2[C@@H]1O[C@H](COP(=O)(O)OP(=O)(O)OP(=O)(O)O)[C@@H](O)[C@H]1O [ATP]	IDR truncation does not abrogate enzyme activity while a Walker A motif point mutant CpaF^K287A does	Enzyme-coupled ATPase assays revealed that IDR truncation does not abrogate enzyme activity	Enzyme-coupled ATPase assays revealed that IDR truncation does not abrogate enzyme activity	Enzyme-coupled ATPase assays revealed that IDR truncation does not abrogate enzyme activity	–
B1	–	–	–	–	6
